According to patent publication US8349880B2, “Bicyclic compounds for the reduction of beta-amyloid production” (Bristol-Myers Squibb Company, priority 2009, dated 2013):

Test system: Aβ1-42 production
Test: Cellular assay for inhibition of Aβ1-42 production (H4 APP751 SWE clone 8.20)
Assay type: cell-based
Settings: 19 h, H4 APP751 SWE clone 8.20 cells, 19 h incubation; read-out: Activity Rating (Aβ42 cellular IC50, given as a number)
Procedure, shortened: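 H4 cells stably expressing APP751 with the Swedish mutation (1.5×10^4 cells/well) incubated with compound for 19 h at 37° C in DMEM with 0.0125% BSA. Secreted Aβ42 measured overnight at 4° C by HTRF-type pairing of 565 (Aβ42 neoepitope) and 26D6 (N-terminal) antibodies. IC50 from curve fit.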

**Q.** Which IC50 does the source give for `COc1cc(Nc2nc3n(n2)CCC(N(C)C)CC3c2ccc(F)cc2)ccc1-n1cnc(Cl)c1` (stereo not shown) [Example 141, N2-(4-(4-chloro-1H-imidazol-1-yl)-3-methoxyphenyl)-9-(4-fluorophenyl)-N7,N7-dimethyl-6,7,8,9-tetrahydro-5H-[1,2,4]triazolo[1,5-a]azepine-2,7-diamine] here?
**A.** 70 nM

**Q.** For `Cc1ncn(-c2ccc(Nc3nc4n(n3)CCC3(CC4c4ccc(F)cc4)OCCO3)cc2F)n1` (stereo not shown) [Example 158, N-(3-fluoro-4-(3-methyl-1H-1,2,4-triazol-1-yl)phenyl)-9-(4-fluorophenyl)-5,6,8,9-tetrahydrospiro[[1,2,4]triazolo[1,5-a]azepine-7,2′-[1,3]dioxolan]-2-amine 2,2,2-trifluoroacetate], which IC50 is on record?
**A.** 16 nM

**Q.** How did the IC50 turn out when `COc1cc(Nc2nc3n(n2)CCCCC3c2ccc(OC(F)(F)F)cc2)cc(F)c1-n1cnc(C)n1` (stereo not shown) [Example 167, N-(3-fluoro-5-methoxy-4-(3-methyl-1H-1,2,4-triazol-1-yl)phenyl)-9-(4-(trifluoromethoxy)phenyl)-6,7,8,9-tetrahydro-5H-[1,2,4]triazolo[1,5-a]azepin-2-amine] was run?
**A.** 44 nM

**Q.** Which IC50 does the source give for `COc1cc(Nc2nc3n(n2)CCCCC3c2ccc(-n3cncn3)cc2)ccc1-n1cnc(Cl)c1` (stereo not shown) [Example 172, 9-(4-(1H-1,2,4-triazol-1-yl)phenyl)-N-(4-(4-chloro-1H-imidazol-1-yl)-3-methoxyphenyl)-6,7,8,9-tetrahydro-5H-[1,2,4]triazolo[1,5-a]azepin-2-amine 2,2,2-trifluoroacetate] here?
**A.** 64 nM

Same assay, conditions: 19 h, H4 APP751 SWE clone 8.20 cells, 19 h incubation; read-out: Activity Rating (based on Aβ42 cellular IC50 values)

**Q.** Which IC50 does the source give for `CCOc1ccc(C2CCCCn3nc(Nc4ccc(-n5cnc(C)n5)c(OC)c4)nc32)cc1` (stereo not shown) [Example 132, 9-(4-ethoxyphenyl)-N-(3-methoxy-4-(3-methyl-1H-1,2,4-triazol-1-yl)phenyl)-6,7,8,9-tetrahydro-5H-[1,2,4]triazolo[1,5-a]azepin-2-amine 2,2,2-trifluoroacetate] here?
**A.** 10 to 100 nM

**Q.** Which IC50 does the source give for `C=C1CCn2nc(Nc3ccc(-n4cnc(Cl)c4)c(OC)c3)nc2C(c2ccc(F)cc2)C1` (stereo not shown) [Example 133, N-(4-(4-chloro-1H-imidazol-1-yl)-3-methoxyphenyl)-9-(4-fluorophenyl)-7-methylene-6,7,8,9-tetrahydro-5H-[1,2,4]triazolo[1,5-a]azepin-2-amine 2,2,2-trifluoroacetate] here?
**A.** 10 to 100 nM

**Q.** For `COc1cc(Nc2nc3n(n2)CCC(C)CC3c2ccc(F)cc2)ccc1-n1cnc(Cl)c1` (stereo not shown) [Example 136, N-(4-(4-chloro-1H-imidazol-1-yl)-3-methoxyphenyl)-9-(4-fluorophenyl)-7-methyl-6,7,8,9-tetrahydro-5H-[1,2,4]triazolo[1,5-a]azepin-2-amine], which IC50 is on record?
**A.** < 10 nM

**Q.** For `COc1cc(Nc2nc3n(n2)CCC(=O)CC3c2ccc(F)cc2)ccc1-n1cnc(Cl)c1` (stereo not shown) [Example 137, 2-(4-(4-chloro-1H-imidazol-1-yl)-3-methoxyphenylamino)-9-(4-fluorophenyl)-8,9-dihydro-5H-[1,2,4]triazolo[1,5-a]azepin-7(6H)-one 2,2,2-trifluoroacetate], which IC50 is on record?
**A.** < 10 nM

**Q.** `CO/N=C1/CCn2nc(Nc3ccc(-n4cnc(Cl)c4)c(OC)c3)nc2C(c2ccc(F)cc2)C1` (stereo not shown) [Example 138, (E)-2-(4-(4-chloro-1H-imidazol-1-yl)-3-methoxyphenylamino)-9-(4-fluorophenyl)-8,9-dihydro-5H-[1,2,4]triazolo[1,5-a]azepin-7(6H)-one O-methyl oxime 2,2,2-trifluoroacetate] was tested. Which IC50 did it give?
**A.** 10 to 100 nM

**Q.** Which IC50 does the source give for `COc1cc(Nc2nc3n(n2)CCC(F)(F)CC3c2ccc(F)cc2)ccc1-n1cnc(Cl)c1` (stereo not shown) [Example 139, N-(4-(4-chloro-1H-imidazol-1-yl)-3-methoxyphenyl)-7,7-difluoro-9-(4-fluorophenyl)-6,7,8,9-tetrahydro-5H-[1,2,4]triazolo[1,5-a]azepin-2-amine 2,2,2-trifluoroacetate] here?
**A.** 10 to 100 nM

**Q.** Which IC50 does the source give for `CNC1CCn2nc(Nc3ccc(-n4cnc(Cl)c4)c(OC)c3)nc2C(c2ccc(F)cc2)C1` (stereo not shown) [Example 140, N2-(4-(4-chloro-1H-imidazol-1-yl)-3-methoxyphenyl)-9-(4-fluorophenyl)-N-7-methyl-6,7,8,9-tetrahydro-5H-[1,2,4]triazolo[1,5-a]azepine-2,7-diamine 2,2,2-trifluoroacetate] here?
**A.** 10 to 100 nM

**Q.** For `COc1cc(Nc2nc3n(n2)CCC(N2CCC2)CC3c2ccc(F)cc2)ccc1-n1cnc(Cl)c1` (stereo not shown) [Example 142, 7-(azetidin-1-yl)-N-(4-(4-chloro-1H-imidazol-1-yl)-3-methoxyphenyl)-9-(4-fluorophenyl)-6,7,8,9-tetrahydro-5H-[1,2,4]triazolo[1,5-a]azepin-2-amine], which IC50 is on record?
**A.** 10 to 100 nM

**Q.** For `COc1cc(Nc2nc3n(n2)CCC(N2CCCC2)CC3c2ccc(F)cc2)ccc1-n1cnc(Cl)c1` (stereo not shown) [Example 143, N-(4-(4-chloro-1H-imidazol-1-yl)-3-methoxyphenyl)-9-(4-fluorophenyl)-7-(pyrrolidin-1-yl)-6,7,8,9-tetrahydro-5H-[1,2,4]triazolo[1,5-a]azepin-2-amine], which IC50 is on record?
**A.** 10 to 100 nM

**Q.** For `COc1cc(Nc2nc3n(n2)CCC2(CC3c3ccc(F)cc3)OCCO2)ccc1-n1cnc(Cl)c1` (stereo not shown) [Example 144, N-(4-(4-chloro-1H-imidazol-1-yl)-3-methoxyphenyl)-9-(4-fluorophenyl)-5,6,8,9-tetrahydrospiro[[1,2,4]triazolo[1,5-a]azepine-7,2′-[1,3]dioxolan]-2-amine 2,2,2-trifluoroacetate], which IC50 is on record?
**A.** < 10 nM

**Q.** How did the IC50 turn out when `COc1cc(Nc2nc3n(n2)CCC(OC)(OC)CC3c2ccc(F)cc2)ccc1-n1cnc(Cl)c1` (stereo not shown) [Example 145, N-(4-(4-chloro-1H-imidazol-1-yl)-3-methoxyphenyl)-9-(4-fluorophenyl)-7,7-dimethoxy-6,7,8,9-tetrahydro-5H-[1,2,4]triazolo[1,5-a]azepin-2-amine] was run?
**A.** < 10 nM

**Q.** Which IC50 does the source give for `CCC1(O)CCn2nc(Nc3ccc(-n4cnc(Cl)c4)c(OC)c3)nc2C(c2ccc(F)cc2)C1` (stereo not shown) [Example 146, 2-(4-(4-chloro-1H-imidazol-1-yl)-3-methoxyphenylamino)-7-ethyl-9-(4-fluorophenyl)-6,7,8,9-tetrahydro-5H-[1,2,4]triazolo[1,5-a]azepin-7-ol] here?
**A.** < 10 nM

**Q.** `COc1cc(Nc2nc3n(n2)CCCCC3c2ccccc2)ccc1-n1cnc(Cl)c1` (stereo not shown) [Example 159, 2,2,2-trifluoroacetate] was tested. Which IC50 did it give?
**A.** < 10 nM

**Q.** `Cc1ncnn1-c1ccc(Nc2nc3n(n2)CCCCC3c2ccc(OC(F)(F)F)c(F)c2)cc1F` (stereo not shown) [Example 160, N-(3-fluoro-4-(5-methyl-1H-1,2,4-triazol-1-yl)phenyl)-9-(3-fluoro-4-(trifluoromethoxy)phenyl)-6,7,8,9-tetrahydro-5H-[1,2,4]triazolo[1,5-a]azepin-2-amine] was tested. Which IC50 did it give?
**A.** < 10 nM

**Q.** With `COc1cc(Nc2nc3n(n2)CCCCC3c2ccc(OCC(F)F)cc2)ccc1-n1cnc(Cl)c1` (stereo not shown) [Example 161, N-(4-(4-chloro-1H-imidazol-1-yl)-3-methoxyphenyl)-9-(4-(2,2-difluoroethoxy)phenyl)-6,7,8,9-tetrahydro-5H-[1,2,4]triazolo[1,5-a]azepin-2-amine] as the compound, how does the IC50 read?
**A.** 10 to 100 nM

**Q.** For `Cc1ncn(-c2ccc(Nc3nc4n(n3)CCCCC4c3ccc(OC(F)(F)F)c(F)c3)cc2F)n1` (stereo not shown) [Example 164, N-(3-fluoro-4-(3-methyl-1H-1,2,4-triazol-1-yl)phenyl)-9-(3-fluoro-4-(trifluoromethoxy)phenyl)-6,7,8,9-tetrahydro-5H-[1,2,4]triazolo[1,5-a]azepin-2-amine], which IC50 is on record?
**A.** < 10 nM

**Q.** With `COc1cc(Nc2nc3n(n2)CCCCC3c2ccc(Br)cc2)ccc1-n1cnc(Cl)c1` (stereo not shown) [Example 170, 9-(4-bromophenyl)-N-(4-(4-chloro-1H-imidazol-1-yl)-3-methoxyphenyl)-6,7,8,9-tetrahydro-5H-[1,2,4]triazolo[1,5-a]azepin-2-amine] as the compound, how does the IC50 read?
**A.** < 10 nM

**Q.** How did the IC50 turn out when `COc1cc(Nc2nc3n(n2)CCCCC3c2ccc(-n3cccn3)cc2)ccc1-n1cnc(Cl)c1` (stereo not shown) [Example 171, 9-(4-(1H-pyrazol-1-yl)phenyl)-N-(4-(4-chloro-1H-imidazol-1-yl)-3-methoxyphenyl)-6,7,8,9-tetrahydro-5H-[1,2,4]triazolo[1,5-a]azepin-2-amine 2,2,2-trifluoroacetate] was run?
**A.** 10 to 100 nM

**Q.** Which IC50 does the source give for `COc1cc(Nc2nc3n(n2)CCCCC3c2ccc(-n3ccnc3)cc2)ccc1-n1cnc(Cl)c1` (stereo not shown) [Example 173, 9-(4-(1H-imidazol-1-yl)phenyl)-N-(4-(4-chloro-1H-imidazol-1-yl)-3-methoxyphenyl)-6,7,8,9-tetrahydro-5H-[1,2,4]triazolo[1,5-a]azepin-2-amine 2,2,2-trifluoroacetate] here?
**A.** 100 to 1000 nM

**Q.** Which IC50 does the source give for `COc1cc(Nc2nc3n(n2)CCCCC3c2ccc(-n3cc(C)cn3)cc2)ccc1-n1cnc(Cl)c1` (stereo not shown) [Example 174, N-(4-(4-chloro-1H-imidazol-1-yl)-3-methoxyphenyl)-9-(4-(4-methyl-1H-pyrazol-1-yl)phenyl)-6,7,8,9-tetrahydro-5H-[1,2,4]triazolo[1,5-a]azepin-2-amine 2,2,2-trifluoroacetate] here?
**A.** < 10 nM

**Q.** Which IC50 does the source give for `COc1cc(Nc2nc3n(n2)CCCCC3c2ccc(OC(F)(F)F)cc2)c(F)cc1-n1cnc(C)n1` (stereo not shown) [Example 175, N-(2-fluoro-5-methoxy-4-(3-methyl-1H-1,2,4-triazol-1-yl)phenyl)-9-(4-(trifluoromethoxy)phenyl)-6,7,8,9-tetrahydro-5H-[1,2,4]triazolo[1,5-a]azepin-2-amine] here?
**A.** 10 to 100 nM

Same assay, conditions: H4 APP751 SWE clone 8.20 cells, 19 h incubation; read-out: Activity Rating (based on Aβ42 cellular IC50 values)

**Q.** Which IC50 does the source give for “(R)—N-(3-fluoro-4-(5-methyl-1H-1,2,4-triazol-1-yl)phenyl)-9-(4-fluorophenyl)-6,7,8,9-tetrahydro-5H-[1,2,4]triazolo azepin-2-amine [Example 95]” here?
**A.** 10 to 100 nM

**Q.** For “(S)—N-(2-fluoro-5-methoxy-4-(3-methyl-1H-1,2,4-triazol-1-yl)phenyl)-9-(4-(2,2,2-trifluoroethoxy)phenyl)-6,7,8,9-tetrahydro-5H-[1,2,4]triazolo azepin-2-amine [Example 117]”, which IC50 is on record?
**A.** 10 to 100 nM

**Q.** “S)—N-(4-(4-chloro-1H-imidazol-1-yl)-3-methoxyphenyl)-9-(3,4-difluorophenyl)-6,7,8,9-tetrahydro-5H-[1,2,4]triazolo[1,5-a]azepin-2-amine [Example 23]” was tested. Which IC50 did it give?
**A.** < 10 nM
